Patent US20150203526A1, “NOVEL 19-NOR-STEROIDS AND THEIR USE FOR TREATING PROGESTERONE- DEPENDENT CONDITIONS” (REPROS THERAPEUTICS INC., priority 2010, published 2015)
≈ marks a conversion by molar mass, not a printed value. Read-outs that look alike come from different tables or passages of the source.

Columns and labels:
[1] = Thermodynamic solubility (solid shaken in solvent at 37° C., filtrate by LC/UV); assay type: physicochemical
Experimental: Briefly, 300 ul of solvent (ethanol, 0.1 M HCl or distilled H2O) were added to 14-16 mg of the solid compound (5 parallel measurements per sample, per solvent, mean concentrations 93-107 mM). The mixtures were shaken at 37° C. for 24 and 72 hours. Concentrations of the filtrates were determined by liquid chromatography with UV detector (LC/UV) with 3-point calibration.
Crystal form was checked by X-ray powder diffraction (XRPD) after recovering the slurry at 24 and 72 hours. […] The exact cause of this observed phenomenon is not known.

[2] = as above; assay type: physicochemical; settings: water and 1.0 M HCl, 24 vs 72 hours
[3] = system: liver aminotransferases; experiment: Clinical trials of daily oral CDB-4124 (Proellex): liver toxicity / liver enzymes; assay type: in vivo, human
Experimental: (§1) The maximum concentrations of CDB-4124 and its mono-demethylated metabolite (CDB-4453) for the 12.5 mg dose were 25% of the 50 mg dose. All liver toxicities resolved in those women that returned for safety follow-ups, including those subjects that developed liver-associated serious adverse effects (SAEs).
To date, over 600 patients, including women with confirmed cases of endometriosis or uterine fibroids, have participated in double blind and open label clinical trials in which patients were administered daily oral capsules containing doses of 12.5 mg, 25 mg or 50 mg CDB-4124 (Proellex) for over one month. Of these patients, about 500 received Proellex and about 130 received a placebo. Of the patients receiving Proellex, about 190 received a dose of 50 mg CDB-4124 per day, about 260 received a dose of 25 mg CDB-4124 per day and about 55 received a dose of 12.5 mg per day.
Liver enzymes were frequently monitored in participating subjects. The liver enzyme level at which the clinical trials would be discontinued was set at an increase in liver aminotransferases greater than, or equal to three times the Upper Limit of Normal (≧3×ULN).
Of the nine subjects with a confirmed increase in liver enzymes≧3×ULN, seven were severe enough elevations to be reported to the FDA as SAEs. One of these seven subjects had been receiving a dose of 25 mg CDB-4124 per day; the remaining six subjects had been receiving a dose of 50 mg CDB-4124 per day. Liver enzymes≧3×ULN persisted in five of the nine subjects with a confirmed increase in liver enzymes≧3×ULN. These five subjects had previously been dosed with the 50 mg dose. One of these subjects is receiving oral medication for treatment of their liver condition. Clinical trials involving CDB-4124 at all doses were voluntarily suspended as a result of these SAEs and were subsequently placed on clinical hold by the United States Food and Drug Administration for safety reasons.

[4] = Pharmacokinetic studies on clinical trial subjects after oral CDB-4124; assay type: in vivo, human
Experimental: as §1
(§2) Pharmacokinetic studies performed on participating subjects detected a high Cmax and a Tmax at 1-2 hours following administration. […] Metabolism of CDB-4124 by the liver provides the opportunity for liver damage and greatly reduces the concentration of the antiprogestin before it reaches the systemic circulation. Thus, alternative routes of administration of antiprogestins that avoid first pass metabolism such as, without limitation, intravenous, intramuscular, and sublingual, should allow antiprogestins to be absorbed directly into the systemic circulation and thereby provide a method for treating progestone-dependent conditions while avoiding liver toxicity. Administration routes which avoid first pass metabolism may also require less drug per dose to achieve the same therapeutic benefit relative to oral administration.

[5] = system: human hepatocytes; experiment: Metabolism in primary cultures of human hepatocytes; assay type: in vitro ADME
Experimental: as §2

[6] = system: animal hepatocytes; experiment: Metabolism in primary cultures of animal hepatocytes; assay type: in vitro ADME
Experimental: as §2

[7] = system: DMBA-induced breast tumors; experiment: DMBA-induced breast tumor pre-clinical study; assay type: in vivo, rodents; settings: subcutaneous injection
Experimental: Pre-clinical studies were performed on rodents with breast tumors induced by 7,12-Dimethylbenz(a)anthracene (DMBA).

[8] = Oral vs vaginal pharmacokinetics in beagles (25 mg); assay type: in vivo
Experimental: FIG. 1 illustrates a comparison of the Cmax (peak serum concentration) and area under the curve (AUC) following oral and vaginal administration of CDB-4124 or CDB-4453 at a 25 mg dose in beagles.
Beagles were administered 25 mg of CDB-4124 or CDB-4453 (the monodemethylated metabolite of CDB-4124) formulated as either a micronized powder or a vaginal suppository. […] Moreover, systemic exposure of the drug is much lower when administered locally (compare AUC for CDB-4124 and CDB-4453 when administered vaginally vs. orally).

[9] = Cmax after vaginal administration extrapolated from beagles to humans; assay type: in vivo; settings: for Predicted Cmax for vaginal administration as percentage of the same dose administered orally: humans
Experimental: FIG. 2 illustrates the actual Cmax observed for Proellex (CDB-4124) and its monodemethylated metabolite CDB-4453, following oral administration of CDB-4124 at 12.5 mg, 25 mg and 50 mg doses as well as the projected Cmax for 3 mg, 6 mg and 9 mg doses. FIG. 2 also illustrates the actual Cmax observed for Proellex (CDB-4124) and its monodemethylated metabolite CDB-4453, following vaginal administration of CDB-4124 at 12.5 mg, 25 mg and 50 mg doses.
The maximum circulating concentrations (Cmax) of CDB-4124 obtained following vaginal administration to beagles were extrapolated to humans for the 12.5 mg, 25 mg and 50 mg doses actually administered during the Phase III clinical studies.
Because a high concentration of the drug in the systemic circulation (and associated first pass metabolism of the drug) is not reached by local administration, avoidance of the severe liver toxicity observed in a small percentage of subjects following oral administration of CDB-4124 in previous Phase III clinical studies at doses of 25 and 50 mg is a surprising advantage of administering the drug locally. Similar advantages should inure to local administration of other antiprogestins.

[10] = system: progesterone-induced endometrial proliferation; experiment: Anti-Clauberg study, subcutaneous vs oral; assay type: in vivo, rabbits
Excerpt: FIG. 3 illustrates a comparison of the inhibition of progesterone-induced endometrial proliferation in estradiol-primed immature rabbits following subcutaneous injection and oral administration of CDB-4124
To determine whether the low circulating levels of CDB-4124 when administered locally could have any impact predictive of efficacy, an anti-Clauberg study was run in which immature estradiol-primed rabbits were coadministered progesterone and various doses of CDB-4124 by either subcutaneous or oral administration. At least 3 different highly trained individuals evaluated the rabbit uterus for glandular growth, for complexity and overall progesterone-induced “development”. The inhibition (by percentage) of progesterone-induced endometrial proliferation at each dose was assayed. […] However, maximal inhibition required a ˜8-fold increase in dosage when administered orally (i.e. 8 mg/kg). Importantly 8 mg/kg corresponds closely to the 50 mg/day dose of CDB-4124 administered to the female subjects described in Example 3.

[11] = system: progesterone-induced endometrial proliferation; experiment: Anti-Clauberg study, vaginal vs oral (McPhail index); assay type: in vivo, rabbits
Experimental: FIG. 4 compares the antiprogestational effects of three doses of CDB-4124 when delivered orally versus when delivered to the vaginal mucosa of estradiol-primed immature rabbits in the presence of progesterone, as measured by a decrease in the McPhail index. Treatment with progesterone alone (vehicle control) provided a baseline measurement of progestational activity.
Another anti-Clauberg study was run in which immature estradiol-primed rabbits were administered progesterone alone (vehicle control) or were co-administered progesterone and three doses of CDB-4124 by either vaginal or oral administration. The inhibition of progesterone-induced endometrial proliferation at each dose was assayed. FIG. 3 illustrates the decrease in the McPhail index following increasing doses of CDB-4124 administered by either route. Maximal inhibition (i.e. a decrease in the McPhail index to 1.5) occurred at 0.2 mg/kg CDB-4124 when administered vaginally, compared to 0.8 mg/kg when administered orally.

[12] = organic solvent or mixture, thermodynamic from solid, ethanol, 24 h, read-out: Thermodynamic solubility, Ethanol, Mean
[13] = organic solvent or mixture, thermodynamic from solid, ethanol, 72 h, read-out: Thermodynamic solubility, Ethanol, Mean
[14] = simulated gastric fluid, thermodynamic from solid, 0.1M HCl, 24 h, read-out: Thermodynamic solubility, 0.1M HCl, Mean
[15] = simulated gastric fluid, thermodynamic from solid, 0.1M HCl, 72 h, read-out: Thermodynamic solubility, 0.1M HCl, Mean
[16] = thermodynamic from solid, distilled water, 24 h, read-out: Thermodynamic solubility, Distilled water, Mean
[17] = thermodynamic from solid, distilled water, 72 h, read-out: Thermodynamic solubility, distilled water, Mean

COCC(=O)[C@@]1(OC(C)=O)CC[C@H]2[C@@H]3CCC4=CC(=O)CCC4=C3[C@@H](c3ccc(C(C)=O)cc3)C[C@@]21C [CDB-4239, 21-methoxy-17α-acetoxy-11β-(4-acetylphenyl)-19-norpregna-4,9-diene-3,20-dione]
solubility thermodynamic at 24 h [1, 12]: > 98200 µM
solubility thermodynamic at 72 h [1, 13]: > 100000 µM
solubility thermodynamic at 24 h [1, 14]: 140 µM (≈ 70.8 µg/mL)
solubility thermodynamic at 72 h [1, 15]: 110 µM (≈ 55.6 µg/mL)
solubility thermodynamic at 24 h [1, 16]: 141 µM (≈ 70.9 µg/mL)
solubility thermodynamic at 72 h [1, 17]: 54.8 µM (≈ 27.7 µg/mL)
Tendency of water and HCl solubilities between 24 and 72 hours [2]: decreasing tendency

COCC(=O)[C@@]1(OC(C)=O)CC[C@H]2[C@@H]3CCC4=CC(=O)CCC4=C3[C@@H](c3ccc(N(C)C)cc3)C[C@@]21C [CDB-4124]
solubility thermodynamic at 72 h ([1]; 0.1M HCl, 24 h, read-out: Thermodynamic solubility, 0.1M HCl, Mean): 53.09 µM (≈ 26.8 µg/mL)
solubility thermodynamic at 72 h ([1]; 0.1M HCl, 72 h, read-out: Thermodynamic solubility, 0.1M HCl, Mean): 56.12 µM (≈ 28.4 µg/mL)
solubility thermodynamic at 72 h ([1]; distilled water, 24 h, read-out: Thermodynamic solubility, distilled water, Mean): 7.10 µM (≈ 3.59 µg/mL)
solubility thermodynamic at 72 h ([1]; distilled water, 72 h, read-out: Thermodynamic solubility, distilled water, Mean): 3.20 µM (≈ 1.62 µg/mL)
Thermodynamic solubility, Ethanol, Mean ([1]; ethanol, 24 h): 36800 µM
Thermodynamic solubility, Ethanol, Mean ([1]; ethanol, 72 h): 34100 µM
Subjects with elevations reported as SAEs ([3]; 25 mg CDB-4124 per day): One
Subjects with elevations reported as SAEs ([3]; 50 mg CDB-4124 per day): six
Subjects with elevations severe enough to be reported as SAEs ([3]; all doses): seven
Subjects found to exhibit an increase in liver enzymes ≧3×ULN ([3]; all doses, before repeat test): thirteen
Subjects with confirmed increase in liver enzymes ≧3×ULN ([3]; all doses, confirmed by repeat test in 48 hours): nine
Adverse liver toxicity signals ([3]; oral, 12.5 mg): no adverse liver toxicity signals different from placebo
Liver toxicity effects at 25 mg/day compared with 50 mg/day ([3]; oral, 25 mg/day vs 50 mg/day): significantly lower in frequency and intensity
Women exhibiting severe liver toxicity ([3]; oral, 50 mg/day): 3-4%
Subjects in whom liver enzymes ≧3×ULN persisted ([3]; previously dosed with the 50 mg dose): five
Cmax ([4]; following oral administration): high
Monodemethylated metabolite detected (first pass metabolism) ([4]; following oral administration): Large quantities
Tmax ([4]; following oral administration): 1 to 2 h
Maximum concentration for the 12.5 mg dose relative to the 50 mg dose ([4]; oral CDB-4124, 12.5 mg vs 50 mg): 25%
Production of the mono-demethylated metabolite [5]: rapidly produce the mono-demethylated metabolite
Production of the mono-demethylated metabolite [6]: rapidly produce the mono-demethylated metabolite
Effect on quantity and size of DMBA-induced breast tumors [7]: effective in reducing the quantity and size of DMBA-induced breast tumors
Metabolism after peak plasma concentration ([8]; oral micronized powder): rapidly metabolized
Metabolism ([8]; vaginal suppository): metabolized slowly
Peak plasma concentrations (Cmax) ([8]; vaginal suppository): relatively low
Systemic exposure (AUC), local vs oral ([8]; vaginal vs oral): much lower
Predicted Cmax for vaginal administration as percentage of the same dose administered orally ([9]; 12.5 mg dose): approximately 6.5%
Cmax with 12.5 mg vaginal dose relative to 50 mg oral dose ([9]; 12.5 mg vaginal vs 50 mg oral): 2%
Predicted Cmax for vaginal administration as percentage of the same dose administered orally ([9]; 50 mg dose): approximately 2%
Dose required for maximal inhibition ([10]; oral): 8 mg/kg
Increase in dosage required for maximal inhibition, oral vs subcutaneous ([10]; oral vs subcutaneous): ~8 fold
Dose at which maximal inhibition was observed ([10]; subcutaneous): less than 1 mg/kg
McPhail index at maximal inhibition ([11]; 0.2 mg/kg vaginal or 0.8 mg/kg oral): 1.5
Dose at which maximal inhibition occurred ([11]; oral): 0.8 mg/kg
Dose at which maximal inhibition occurred ([11]; vaginal): 0.2 mg/kg
Antiprogestational activity of vaginal delivery relative to the same oral dose ([11]; vaginal vs oral): four times the antiprogestational activity

CC(=O)OCC(=O)[C@@]1(OC(C)=O)CC[C@H]2[C@@H]3CCC4=CC(=O)CCC4=C3[C@@H](c3ccc(C(C)=O)cc3)C[C@@]21C [CDB-4241, 21-acetoxy-17α-acetoxy-11β-(4-acetylphenyl)-19-norpregna-4,9-diene-3,20-dione]
solubility thermodynamic at 24 h [1, 12]: 26300 µM (≈ 14000 µg/mL)
solubility thermodynamic at 72 h [1, 13]: 21600 µM (≈ 11500 µg/mL)
solubility thermodynamic at 24 h [1, 14]: 3.21 µM (≈ 1.71 µg/mL)
solubility thermodynamic at 72 h [1, 15]: 3.9 µM (≈ 2.08 µg/mL)
solubility thermodynamic at 24 h [1, 16]: 3.08 µM (≈ 1.64 µg/mL)
solubility thermodynamic at 72 h [1, 17]: 3.05 µM (≈ 1.62 µg/mL)
